One experiment has as its target Nonstructural protein 1 (Influenza A virus, UniProt Q194T2). Type of experiment: functional, Influenza A virus (A/California/07/2009(H1N1)).
Experiment [1] deals with T1, Endoribonuclease toxin MazF (Escherichia coli K-12, UniProt P0AE70).
T1 sequence (P0AE70 whole entry): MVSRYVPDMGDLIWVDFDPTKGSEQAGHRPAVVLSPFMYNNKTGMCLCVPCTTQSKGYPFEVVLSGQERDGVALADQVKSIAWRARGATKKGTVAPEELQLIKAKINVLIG
The experiment in a line: MazF toxin RNase activators, dose response, biochemical, fluorescence, single-stranded RNA substrate, uHTS hits (AID 588481). Type of experiment: functional.

For a further experiment, the system named is MEF. Put plainly: SAR analysis of small molecule cytotoxicity of MazEF TA System activators in embryonic fibroblast (MEF) cells. [Related pubchem assays (depositor defined):AID504720, AID504743]. As to conditions: Mus musculus. Type of experiment: functional.
Experiment [2] has as its target Delta-type opioid receptor (Homo sapiens, UniProt P41143). Put plainly: Counterscreen for agonists of heterodimerization of the mu 1 (OPRM1) and delta 1 (OPRD1) opioid receptors: Luminescence-based cell-based high throughput dose response assay to identify agonists of OPRD1 homodimerization. [Related pubchem assays (depositor defined):AID504326, AID504355, AID504692, AID504904, AID504905]. Format: functional.

For a further experiment, the target named is Large T antigen (Simian virus 40, UniProt P03070). Format: functional, Betapolyomavirus macacae.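 Also: Confirmatory-stage PubChem screen for compounds that inhibit SV40 T antigen.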
For experiment [3], the target named is T2, 1-phosphatidylinositol 4,5-bisphosphate phosphodiesterase beta-3 (Homo sapiens, UniProt Q01970).
T2 sequence (Q01970 whole entry): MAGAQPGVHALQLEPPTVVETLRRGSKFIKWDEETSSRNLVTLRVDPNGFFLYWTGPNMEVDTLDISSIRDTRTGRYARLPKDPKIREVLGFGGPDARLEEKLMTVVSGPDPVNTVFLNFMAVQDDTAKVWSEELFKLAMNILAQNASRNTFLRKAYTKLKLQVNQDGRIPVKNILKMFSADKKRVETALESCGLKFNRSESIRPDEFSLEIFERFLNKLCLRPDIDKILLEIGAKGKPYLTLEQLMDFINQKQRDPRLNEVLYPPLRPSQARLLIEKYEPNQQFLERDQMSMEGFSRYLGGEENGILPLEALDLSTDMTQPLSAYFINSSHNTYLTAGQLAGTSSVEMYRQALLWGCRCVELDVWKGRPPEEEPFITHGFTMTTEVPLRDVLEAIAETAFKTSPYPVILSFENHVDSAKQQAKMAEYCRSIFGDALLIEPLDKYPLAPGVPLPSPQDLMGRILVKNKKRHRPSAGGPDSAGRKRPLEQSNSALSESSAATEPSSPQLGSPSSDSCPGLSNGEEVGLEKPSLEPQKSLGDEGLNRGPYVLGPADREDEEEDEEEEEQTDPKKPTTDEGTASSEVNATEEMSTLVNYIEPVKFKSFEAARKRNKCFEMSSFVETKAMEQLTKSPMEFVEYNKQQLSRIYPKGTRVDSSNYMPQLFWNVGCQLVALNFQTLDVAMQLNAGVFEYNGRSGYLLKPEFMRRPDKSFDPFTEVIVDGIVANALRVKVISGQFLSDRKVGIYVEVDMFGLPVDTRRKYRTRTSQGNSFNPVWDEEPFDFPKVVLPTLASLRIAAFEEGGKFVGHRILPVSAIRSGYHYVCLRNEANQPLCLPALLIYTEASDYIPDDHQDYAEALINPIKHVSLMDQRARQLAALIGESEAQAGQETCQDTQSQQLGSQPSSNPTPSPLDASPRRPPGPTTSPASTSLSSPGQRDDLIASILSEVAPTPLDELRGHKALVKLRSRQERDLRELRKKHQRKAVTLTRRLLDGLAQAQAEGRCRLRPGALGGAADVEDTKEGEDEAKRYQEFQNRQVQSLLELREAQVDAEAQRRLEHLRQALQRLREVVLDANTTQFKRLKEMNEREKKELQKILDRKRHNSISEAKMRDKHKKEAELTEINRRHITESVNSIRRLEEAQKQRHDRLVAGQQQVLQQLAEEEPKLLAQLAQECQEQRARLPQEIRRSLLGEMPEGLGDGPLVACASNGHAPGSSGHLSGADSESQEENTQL
Put plainly: Fluorescence-based biochemical high throughput dose response assay to identify inhibitors of phospholipase C isozymes (PLC-B3).

Another experiment addresses T3, Streptokinase A (Streptococcus pyogenes serotype M1, UniProt P10520).
T3 sequence (P10520 whole entry): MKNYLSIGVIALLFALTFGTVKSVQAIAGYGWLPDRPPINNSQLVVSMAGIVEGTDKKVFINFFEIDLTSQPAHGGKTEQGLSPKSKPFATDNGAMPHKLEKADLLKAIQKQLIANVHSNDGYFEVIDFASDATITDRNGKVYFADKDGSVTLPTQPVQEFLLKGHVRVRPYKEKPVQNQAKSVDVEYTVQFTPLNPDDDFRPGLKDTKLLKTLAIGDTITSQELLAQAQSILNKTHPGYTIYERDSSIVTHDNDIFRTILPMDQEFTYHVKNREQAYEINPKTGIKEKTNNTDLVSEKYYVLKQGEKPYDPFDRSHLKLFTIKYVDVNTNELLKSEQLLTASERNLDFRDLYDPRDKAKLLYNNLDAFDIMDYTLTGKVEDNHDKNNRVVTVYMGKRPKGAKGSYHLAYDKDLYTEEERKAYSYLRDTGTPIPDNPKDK
Put plainly: S. pyogenes streptokinase expression inhibitors, potency, dose response, plasminogen activation absorbance, OD405 (AID 1914).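 Also: secreted streptokinase activity via plasminogen activation per viability signal from cell pellet.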 Type of experiment: functional, Streptococcus pyogenes M1 GAS.

Experiment [4] concerns the target Mothers against decapentaplegic homolog 3 (Homo sapiens, UniProt P84022). Put plainly: SMAD3 transcription factor inhibitors, dose response (AID 715). Format: functional.
A short description of experiment [5]: HepG2 cell cytotoxicity, dose response, cytotoxicity control for non-replicating M. tuberculosis project (AID 489018). Type of experiment: functional. As to conditions: Mycobacterium tuberculosis.
A short description of experiment [6]: Intein inhibitors as potential Tuberculosis drugs, a cytotoxicity screen. [Related pubchem assays (depositor defined):AID2221, AID2223, AID434968, AID435010, AID449749, AID449750, AID489010]. Format: functional.

The source made the active and inactive calls.

Nonstructural protein 1, sequence (Q194T2 whole entry): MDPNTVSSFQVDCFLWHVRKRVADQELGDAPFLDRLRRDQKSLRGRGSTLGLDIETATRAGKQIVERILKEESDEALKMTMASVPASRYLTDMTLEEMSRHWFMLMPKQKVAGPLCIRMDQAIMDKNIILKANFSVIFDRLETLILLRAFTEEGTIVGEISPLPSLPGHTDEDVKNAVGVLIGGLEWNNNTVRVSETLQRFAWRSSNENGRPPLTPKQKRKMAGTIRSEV
Large T antigen, sequence (P03070 whole entry): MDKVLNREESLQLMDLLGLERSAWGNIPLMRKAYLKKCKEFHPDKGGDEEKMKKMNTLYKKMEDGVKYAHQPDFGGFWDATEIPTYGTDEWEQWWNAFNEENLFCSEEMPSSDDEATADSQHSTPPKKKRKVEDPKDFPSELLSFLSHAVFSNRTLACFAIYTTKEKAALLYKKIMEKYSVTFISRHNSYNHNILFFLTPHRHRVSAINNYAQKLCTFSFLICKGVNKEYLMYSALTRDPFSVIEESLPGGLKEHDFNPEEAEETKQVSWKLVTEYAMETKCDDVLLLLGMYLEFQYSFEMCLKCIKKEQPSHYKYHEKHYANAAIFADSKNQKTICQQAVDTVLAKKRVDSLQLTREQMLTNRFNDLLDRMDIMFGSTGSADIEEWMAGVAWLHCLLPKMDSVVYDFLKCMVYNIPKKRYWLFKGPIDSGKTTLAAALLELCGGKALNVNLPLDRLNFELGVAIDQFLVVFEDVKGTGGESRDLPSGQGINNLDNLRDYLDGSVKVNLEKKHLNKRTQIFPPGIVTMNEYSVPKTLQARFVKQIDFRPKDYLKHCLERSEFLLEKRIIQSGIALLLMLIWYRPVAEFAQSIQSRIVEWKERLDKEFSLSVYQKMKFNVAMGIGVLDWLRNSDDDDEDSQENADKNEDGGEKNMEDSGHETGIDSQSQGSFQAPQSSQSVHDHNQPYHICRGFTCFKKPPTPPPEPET
Mothers against decapentaplegic homolog 3, sequence (P84022 whole entry): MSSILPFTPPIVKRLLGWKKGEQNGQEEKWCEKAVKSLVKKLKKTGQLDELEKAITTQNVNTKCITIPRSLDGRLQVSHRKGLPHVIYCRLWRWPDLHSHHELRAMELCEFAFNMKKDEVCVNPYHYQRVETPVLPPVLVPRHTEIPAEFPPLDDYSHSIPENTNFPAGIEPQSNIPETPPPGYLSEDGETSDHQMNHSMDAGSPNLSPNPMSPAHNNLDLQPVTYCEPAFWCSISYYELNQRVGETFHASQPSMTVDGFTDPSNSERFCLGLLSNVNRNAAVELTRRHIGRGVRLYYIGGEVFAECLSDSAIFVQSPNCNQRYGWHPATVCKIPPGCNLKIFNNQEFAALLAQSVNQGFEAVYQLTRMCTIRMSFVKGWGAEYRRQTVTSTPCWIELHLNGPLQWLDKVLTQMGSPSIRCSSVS
Delta-type opioid receptor, sequence (P41143 whole entry): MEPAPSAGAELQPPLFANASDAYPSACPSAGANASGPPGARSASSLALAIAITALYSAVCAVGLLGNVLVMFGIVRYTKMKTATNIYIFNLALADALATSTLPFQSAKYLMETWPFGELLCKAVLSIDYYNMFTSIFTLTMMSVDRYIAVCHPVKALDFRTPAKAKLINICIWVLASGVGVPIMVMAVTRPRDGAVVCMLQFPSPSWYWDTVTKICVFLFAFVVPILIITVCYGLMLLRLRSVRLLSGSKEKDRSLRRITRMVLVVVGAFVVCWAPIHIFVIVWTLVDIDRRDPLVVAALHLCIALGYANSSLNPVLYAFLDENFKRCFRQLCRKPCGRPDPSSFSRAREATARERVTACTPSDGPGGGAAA

In the case of `O=C1C=C(c2c(O)ccc3ccccc23)c2ccccc2C1=O`, the IC50 at Nonstructural protein 1 is 46.5 µM (active). Also, the EC50 was 7.31 µM (active) in [1] and > 92.4 µM (inactive) in experiment [2]. Moreover, the CC50 with MEF was 3.84 µM (active).

Regarding `O=C(CCN1C(=O)/C(=C\c2ccco2)SC1=S)Nc1ccc(C(=O)O)c(O)c1`, the IC50 on Large T antigen is > 100 µM (active); in experiment [3] it was > 122 µM (inactive).

In the case of `Cc1nc2c(=O)n(C)c(=O)nc-2n(C)n1`, on Streptokinase A, the EC50 is listed as > 150 µM (not active). Moreover, in experiment [4], the IC50 was 0.038 µM (active). The half-maximal cytotoxic concentration (CC50) in experiment [5] is 4.16 µM (active); in experiment [6], 7.94 µM (active).

For the origin of these results see ChEMBL document CHEMBL1201862, “PubChem BioAssay data set” (2004).
